The text below walks through data of PMC3174134, “Lucanthone and Its Derivative Hycanthone Inhibit Apurinic Endonuclease-1 (APE1) by Direct Protein Binding” (PLoS ONE, 2011).

One assay concerns tubulin. As to the kind of experiment: Tubulin stability in U251 1-5 whole cell extracts, Western blot. The conditions noted are these: lucanthone 2.5-100 µM; CRT at 200 µM. How it is done: (§1) Total purified protein concentration was determined by the ratio of A280/A260. 250 ng of APE1 treated with lucanthone or hycanthone (0.05–100 µM) for 2 h at 37°C in final volume of 30 µl were mixed with an equal volume of gel loading buffer (0.001% bromophenol blue, 4% SDS, 10% 2-ME, 20% glycerol, and 125 mM Tris pH 6.8) and denatured at 95°C for 5 min. Total protein concentration in cell extracts was determined using the Bradford assay (BioRad, Hercules, CA) and 25 µg of total protein from soluble or insoluble cell fractions were mixed with an equal volume of gel loading buffer (0.001% bromophenol blue, 4% SDS, 10% 2-ME, 20% glycerol, and 125 mM Tris pH 6.8) and denatured at 95°C for 5 min. This mixture was separated by SDS-PAGE (4% stacking, 7.5% resolving gel) for 2–3 h at 40 mA on a BioRad MiniPROTEAN II Electrophoresis Cell. To detect proteins, proteins were transferred onto a trans-Blot nitrocellulose membrane (0.45 µm; BioRad) overnight at 4°C at 15 mA in standard Tris-Glycine buffer containing 20% ethanol. […] Chemi-luminescence was developed using an ECL kit according to the manufacturer's instructions and detected by exposing the blot to HyperfilmECL for 30 s–3 min. […]

Assay [1] concerns the target T1, APE1 (Homo sapiens, UniProt P27695). As to the kind of experiment: APE1 cleavage in whole cell extracts of U251 1-5 APE1 overexpressor clone, Western blot with protease inhibitor cocktail. Also on record: the full length APE1 protein was successfully expressed and purified; made in house; host or cells: E. coli BL21/DE3. The conditions noted are these: U251 1-5 whole cell extracts, 2 h, 37°C. How it is done:
as §1

Assay [2] deals with T1, APE1. As to the kind of experiment: MALDI-TOF analysis of APE1 degradation. Details: the full length APE1 protein was successfully expressed and purified; made in house; host or cells: E. coli BL21/DE3. The conditions noted are these: 100 µM drug. The procedure: 100 nM of APE1 protein was treated with 100 µM of lucanthone, hycanthone or CRT at 37°C for 2 h and 24 h and analyzed on sinipinic acid matrix on a Voyager-DE STR (Applied Biosystems) MALDI-TOF instrument at the Proteomics facility at SUNYSB in a linear mode.

T1 sequence (P27695 whole entry): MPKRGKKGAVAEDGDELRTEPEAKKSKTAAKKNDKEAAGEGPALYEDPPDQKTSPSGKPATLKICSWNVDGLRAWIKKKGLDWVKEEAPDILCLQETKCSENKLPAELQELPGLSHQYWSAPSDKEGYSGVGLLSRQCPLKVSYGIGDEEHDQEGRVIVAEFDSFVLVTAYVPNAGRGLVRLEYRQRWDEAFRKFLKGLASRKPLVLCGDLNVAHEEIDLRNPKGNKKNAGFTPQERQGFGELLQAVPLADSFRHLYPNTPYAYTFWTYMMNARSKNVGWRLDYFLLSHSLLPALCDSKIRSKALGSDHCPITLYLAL

Turning to `O=C(O)c1cc2cccc([N+](=O)[O-])c2[nH]1` [CRT0044876, 7-Nitroindole-2-carboxylic acid], the “Effect on tubulin protein” value in the assay with tubulin is given as “some shift in its migration”. At APE1 [1], the “Concentration causing cleavage of APE1” value worked out at 200 µM. The “Time at which APE1 degradation is seen by MALDI” value on APE1 [2] came to 24 h. The “APE1 protein fragments by MALDI-TOF” value at APE1 [2] (37°C, 2 or 24 h) was “much less cleavage of APE1”. Also, at APE1 [2] (37°C, 24 h), the “Full length 35.5 kDa APE1 peak by MALDI-TOF” value is on record as “still an intact 35.5 kDa peak”.
